Results published in ChEMBL document CHEMBL1132164, “Nonpeptidic HIV protease inhibitors: 6-alkyl-5,6-dihydropyran-2-ones possessing achiral 3-(4-amino/carboxamide-2-t-butyl,5-methylphenyl thio) moiety: antiviral activities and pharmacokinetic properties” (Bioorg Med Chem Lett, 1999).

How the values were obtained:
[1] = biological target: T1, Human immunodeficiency virus type 1 protease (Human immunodeficiency virus 1, UniProt Q72874); experiment: In vitro binding affinity against HIV protease at pH 6.2.
CCRF-CEM [2] = experiment: Tested for the cytotoxic effect in uninfected human lymphocyte derived CEM cells.; assay type: functional; conditions: read-out: TC50 (the source's name)
[3] = test system: Human immunodeficiency virus 1; experiment: (§1) Tested for antiviral activity against HIV-III B strain infected human lymphocyte derived CEM cells; assay type: functional, organism-based, CCRF-CEM
HIV protease = experiment: (§2) Therapeutic index for HIV protease was determined; conditions: read-out: Therapeutic index
[4] = biological target: T1, Human immunodeficiency virus type 1 protease; experiment: In vitro binding affinity against HIV protease at pH 6.2 was determined
[5] = Therapeutic index was determined; conditions: read-out: TI
[6] = Maximum concentration obtained in mouse plasma was determined at dose 25 mg/kg; assay type: ADME, organism-based; set-up: dose 25 mg/kg
[7] = Area under the curve for the compound is obtained at dose 25 mg/kg; assay type: ADME, organism-based; set-up: dose 25 mg/kg; conditions: mouse, in vivo
[8] = Half life in mouse plasma at dose 25 mg/kg; assay type: ADME, organism-based; set-up: dose 25 mg/kg
[9] = Bioavailability was obtained by the comparison of AUC of subcutaneous dosing and AUC of oral dosing in mouse at dose 25 mg/kg; assay type: ADME, organism-based; conditions: in vivo, read-out: Bioavailabiility
[10] = biological target: Human immunodeficiency virus type 1 protease (Human immunodeficiency virus 1) (UniProt Q72874); experiment: In vitro binding affinity to HIV protease was determined
[11] = biological target: T1, Human immunodeficiency virus type 1 protease; experiment: Binding affinity towards HIV protease was determined
Mus musculus [12] = experiment: Time taken for EC90 was determined when tested in mouse at dose 25 mg/kg; assay type: ADME, organism-based; set-up: dose 25 mg/kg; conditions: in vivo
Mus musculus [13] = species: Mus musculus; experiment: Time taken for EC90 was determined when tested in mouse; assay type: ADME, organism-based; conditions: in vivo
[14] = Bioavailability was obtained by the comparison of AUC of intravenous dosing and AUC of oral dosing in dog; assay type: ADME, organism-based, Canis lupus familiaris; conditions: in vivo, read-out: Bioavailabiility
[15] = Area under the curve for the compound was obtained when tested in dog; assay type: ADME, organism-based, Canis lupus familiaris; conditions: in vivo
[16] = Bioavailability was obtained by the comparison of AUC of subcutaneous dosing and AUC of oral dosing in mouse; assay type: ADME, organism-based; conditions: in vivo, read-out: Bioavailabiility
[17] = Maximum concentration obtained in mouse plasma was determined; assay type: ADME, organism-based
[18] = as §2
[19] = Half life in mouse plasma was determined at dose 25 mg/kg; assay type: ADME, organism-based; set-up: dose 25 mg/kg
[20] = Maximum concentration obtained in dog plasma was determined; assay type: ADME, organism-based, Canis lupus familiaris
CCRF-CEM [21] = experiment: as §1; assay type: functional
Canis familiaris = species: Canis familiaris; experiment: Time taken for EC90 was determined when tested in dog; assay type: ADME, organism-based, Canis lupus familiaris; conditions: in vivo
[22] = Half life in dog plasma was determined at dose 10 mg/kg; assay type: ADME, organism-based, Canis lupus familiaris; set-up: dose 10 mg/kg
[23] = Area under the curve for the compound was obtained when tested in mouse; assay type: ADME, organism-based; conditions: in vivo
[24] = biological target: T1, Human immunodeficiency virus type 1 protease; experiment: In vitro binding affinity to HIV protease was determined at pH 4.7
[25] = Human immunodeficiency virus 1, CCRF-CEM

Structure (SMILES) | IC50 [1] [µM] | CC50 (CCRF-CEM [2]) [µM] | EC50 [3, 25] [µM] | selectivity ratio (HIV protease) | other results
Cc1cc(SC2=C(O)OC(CCc3ccc(O)cc3)(CC(C)C)CC2=O)c(C(C)(C)C)cc1N (stereo not given) | 0.0135 | 62 | 8.1 | 8 | –
Cc1cc(SC2=C(O)OC(CCc3ccc(O)cc3)(C(C)C)CC2=O)c(C(C)(C)C)cc1NC(=O)c1ccccn1 (stereo not given) | 0.0061 | 66 | 1.5 | 44 | –
Cc1cc(SC2=C(O)OC(CCc3ccc(O)cc3)(C(C)C)CC2=O)c(C(C)(C)C)cc1NC(=O)c1ccncc1 (stereo not given) | 0.00508 | > 100 | 5.1 | > 20 | –
CCCCC1(CCc2ccc(O)cc2)CC(=O)C(Sc2cc(C)c(N)cc2C(C)(C)C)=C(O)O1 (stereo not given) | 0.0044 | 25 | 3.7 | 7 | –
Cc1cc(SC2=C(O)OC(CCc3ccc(O)cc3)(C3CC3)CC2=O)c(C(C)(C)C)cc1N (stereo not given) | 0.0041 | 49 | 2.5 | 20 | –
CC(=O)Nc1cc(C(C)(C)C)c(SC2=C(O)OC(CCc3ccccc3)(C(C)C)CC2=O)cc1C (stereo not given) | 0.0035 | 83 | 1.8 | 46 | –
Cc1cc(SC2=C(O)O[C@](CCc3ccc(O)cc3)(C(C)C)CC2=O)c(C(C)(C)C)cc1CO | – | – | 0.46 | – | Ki [4]: 0.09 nM; selectivity ratio [5]: > 200
Cc1cc(SC2=C(O)OC(CCc3ccccc3)(c3ccccc3)CC2=O)c(C(C)(C)C)cc1N (stereo not given) | 0.011 | 64 | > 64 | < 1 | –
Cc1cc(SC2=C(O)OC(CCc3ccc(O)cc3)(C(C)C)CC2=O)c(C(C)(C)C)cc1NC(=O)c1ccc(C(F)(F)F)cc1 (stereo not given) | 0.0121 | 27 | 5 | 5 | –
Cc1cc(SC2=C(O)OC(CCc3ccccc3)(C(C)C)CC2=O)c(C(C)(C)C)cc1N (stereo not given) | 0.0033 | 69 | 1.9 | 36 | –
Cc1cc(SC2=C(O)OC(C)(CCc3ccc(O)cc3)CC2=O)c(C(C)(C)C)cc1N (stereo not given) | 0.0096 | 66 | 9.4 | 7 | –
Cc1cc(SC2=C(O)OC(CCc3ccc(O)cc3)(C(C)C)CC2=O)c(C(C)(C)C)cc1N(C)C (stereo not given) | 0.011 | 68 | 1.9 | 36 | –
Cc1cc(SC2=C(O)OC(CCc3ccc(O)cc3)(C(C)C)CC2=O)c(C(C)(C)C)cc1N (stereo not given) | 0.0027 | 92 | 1 | 92 | Cmax [6]: 21 µM; AUC [7]: 44.8 µM·h; half-life [8]: 2.1 h; bioavailability [9]: 59.2%; EC90 [10]: 3.5 µM; Ki [11]: 0.67 nM; Hours above EC90 (Mus musculus [12]): 3.2
Cc1cc(SC2=C(O)OC(CCc3ccc(N)cc3)(C(C)C)CC2=O)c(C(C)(C)C)cc1N (stereo not given) | 0.0075 | 30 | 0.9 | 33 | –
Cc1cc(SC2=C(O)OC(C)(CCc3ccc(O)cc3)CC2=O)c(C(C)(C)C)cc1O (stereo not given) | – | 7 | > 7 | < 1 | –
Cc1cc(SC2=C(O)O[C@](CCc3ccc(O)cc3)(C(C)C)CC2=O)c(C(C)(C)C)cc1N (stereo in doubt; 15S) | – | 211 | – | – | Hours above EC90 (Mus musculus [13]): 4; bioavailability [14]: 56%; AUC [15]: 138 µM·h; bioavailability [16]: 100%; EC50 ([3]; ccrf-cem): 0.5 µM; Cmax [17]: 21.7 µM; Therapeutic index [18]: 422; half-life [19]: 1.2 h; Cmax [20]: 71 µM; Ki [11]: 0.07 nM; EC90 (CCRF-CEM [21]): 1 µM; Hours above EC90 (Canis familiaris): 8.5; half-life [22]: 1.7 h; AUC [23]: 30 µM·h

Structure (SMILES) | IC50 [1] [µM] | CC50 (CCRF-CEM [2]) [µM] | EC50 [3, 25] [µM] | selectivity ratio (HIV protease) | other results
Cc1cc(SC2=C(O)OC(CCc3ccc(O)cc3)(C3CCCC3)CC2=O)c(C(C)(C)C)cc1N (stereo not given) | 0.006 | 82 | 3.8 | 22 | –
Cc1cc(SC2=C(O)OC(CCc3ccc(O)cc3)(C(C)C)CC2=O)c(C(C)(C)C)cc1NC(=O)CC(C)(C)C (stereo not given) | 0.06 | 67 | 16 | 4 | –
CCCC1(CCc2ccc(O)cc2)CC(=O)C(Sc2cc(C)c(N)cc2C(C)(C)C)=C(O)O1 (stereo not given) | 0.0038 | 62 | 4.1 | 15 | –
Cc1cc(SC2=C(O)OC(CCc3ccc(O)cc3)(C(C)C)CC2=O)c(C(C)(C)C)cc1NC(=O)c1cccnc1 (stereo not given) | 0.0051 | > 100 | 4.9 | > 20 | –
CCCCCC1(CCc2ccc(O)cc2)CC(=O)C(Sc2cc(C)c(N)cc2C(C)(C)C)=C(O)O1 (stereo not given) | 0.0077 | 24 | > 24 | < 1 | –
CC(=O)Nc1cc(C(C)(C)C)c(SC2=C(O)OC(CCc3ccc(O)cc3)(C(C)C)CC2=O)cc1C (stereo not given) | 0.0034 | > 100 | 4.8 | > 21 | –
Cc1cc(SC2=C(O)OC(CCc3ccc(O)cc3)(C(C)C)CC2=O)c(C(C)(C)C)cc1NC(=O)c1ccccc1 (stereo not given) | 0.0132 | 66 | 5.4 | 12 | –
Cc1cc(SC2=C(O)OC(CCc3ccc(O)cc3)(C(C)C)CC2=O)c(C(C)(C)C)cc1NC(=O)OC(C)(C)C (stereo not given) | 0.091 | – | – | – | –
Cc1cc(SC2=C(O)O[C@](CCc3ccc(N)cc3)(C(C)C)CC2=O)c(C(C)(C)C)cc1CO | – | – | – | – | selectivity ratio [5]: 1050
Cc1ccc(C(C)(C)C)c(SC2=C(O)O[C@](CCc3ccccc3)(c3ccccc3)CC2=O)c1 | – | – | – | – | IC50 [24]: 0.01 µM
Cc1cc(SC2=C(O)OC(CCc3ccccc3)(C(C)C)CC2=O)c(C(C)(C)C)cc1NC(=O)c1ccc(C#N)cc1 (stereo not given) | 0.014 | 46 | 8.3 | 6 | –
Cc1cc(SC2=C(O)OC(CCc3ccc(O)cc3)(C(C)C)CC2=O)c(C(C)(C)C)cc1NC(=O)c1ccc(C#N)cc1 (stereo not given) | 0.005 | 66 | 4.1 | 16 | –
Cc1cc(SC2=C(O)OC(CCc3ccc(O)cc3)(C3CCCCC3)CC2=O)c(C(C)(C)C)cc1N (stereo not given) | 0.02 | 66 | 10 | 7 | –
Cc1cc(SC2=C(O)O[C@](CCc3ccc(O)cc3)(C(C)C)CC2=O)c(C(C)(C)C)cc1N (stereo in doubt; 15R) | – | – | – | – | EC50 ([3]; ccrf-cem): 91 µM; Therapeutic index [18]: 2; Ki [11]: 13 nM
Cc1cc(SC2=C(O)OC(CCc3ccc(O)cc3)(C(C)C)CC2=O)c(C(C)(C)C)cc1NC(=O)c1cccc(C#N)c1 (stereo not given) | 0.015 | 66 | 14 | 5 | –
